Source: patent US4351954A (priority 1979, dated 1982)

Assays:
acid phosphatase = experiment: Enzyme inhibiting activity; type: biochemical; conditions: pH 5, 37° C. for 20 minutes
Protocol: A 2×10^-4 M aqueous solution of fluorine-containing amino acid was prepared by adding a fluorine-containing amino acid, viz. CF2 ClCHFCH2 CH(NH2)CO2 H, dissolved in a small amount of methanol to a mixture consisting of 0.1 cc of a 0.025% aqueous solution of acid phosphatase, 0.1 mol of a substrate, 0.05 cc of DPNP, 0.25 cc of water and a 0.1 N sodium acetate (pH 5) as a buffer. The resultant mixture was incubated at 37° C. for 20 minutes. At the end of the 20 minutes, the reaction proceeding in the mixture was stopped by adding 3 cc of an aqueous NaOH solution to the mixture. The mixture was assayed for absorption at a wavelength of 422 mμ.
When the procedure was repeated by using a 1×10^-3 M aqueous solution of CF2 ClCFClCH(CH3)CH(NH2)CO2 H, the enzyme inhibition ratio was 37%.

[1] = tested on: bacterial leaf blight (Xanthomonas oryzae Dowson); type: cell-based; conditions: paper discs immersed in 500-ppm aqueous solution; after two days; qualitative
[2] = tested on: blast (Pyricularia oryzae Cavara); type: cell-based; conditions: paper discs immersed in 500-ppm aqueous solution; after two days; qualitative
[3] = tested on: purple loosestrife (Lythrum anceps); experiment: Herbicidal activity, miniature paddy field; type: in vivo; conditions: 1% aqueous solution, after 15 days
Text: (§1) Paddy-field soil kneaded in a concrete mixer was placed in 500-ml plastic beakers. Seeds of barnyardgrass (Echinochloa crusgalli Beauv.) were scattered on the soil and incorporated in the soil to a depth of about 2 cm from the surface. Afterward, the seeds of pickerelweed (Monochloria vaginalis var. plantaginea) and purple loosestrife (Lythrum anceps) were scattered on the surface of soil. Then, slender spikerush (Eleocharis acicularis) and rice were transplanted to the soil. The soil in the beakers was inundated to a depth of about 3 cm. After two days, 1% aqueous solution of CF2 ClCFClCH2 CH(NH2)CO2 H and CF2 BrCF2 CH2 CH(NH2)CO2 H were applied to the soil in the beakers at dosage rates of 1000 g, 500 g, and 250 g per 10 acres with the aid of a pipet. After 15 days, the miniature paddy fields were examined.

[4] = tested on: pickerelweed (Monochloria vaginalis var. plantaginea); experiment: Herbicidal activity, miniature paddy field; type: in vivo; conditions: 1% aqueous solution, after 15 days
Text: as §1

[5] = tested on: diamondback moths (Plutella maculipennis Curtis); experiment: Insecticidal activity, treated cabbage leaves fed to moths; type: in vivo; conditions: 240 h, cabbage leaves immersed in 500-ppm aqueous solution, after 10 days, read-out: insects dead
Text: Cabbage leaves were immersed in a 500-ppm aqueous CF2 BrCF2 CH2 CH(NH2)CO2 H solution, removed from the solution and dried. They were placed in a Petri dish, in which a group of diamondback moths (Plutella maculipennis Curtis) were fed on the cabbage leaves. After 10 days, 70% of the insects were dead. When the same number of diamondback moths were fed on cabbage leaves which had not been given the treatment, only 10% of the insects were dead after 10 days.

[6] = tested on: black spot (Alternaria kikuchiana Tanka); type: cell-based
[7] = tested on: melanose (Diaporthe citri Wolf); type: cell-based

| SMILES | enzyme inhibition ratio (acid phosphatase; 1×10^-3 M, 1000 µM) [%] | growth of the germs of bacterial leaf blight [1] | growth of the germs of blast [2] | destruction of purple loosestrife ([3]; 250 g per 10 acres) | destruction of purple loosestrife ([3]; 500 g per 10 acres) | destruction of purple loosestrife ([3]; 1000 g per 10 acres) | destruction of pickerelweed ([4]; 250 g per 10 acres) | destruction of pickerelweed ([4]; 500 g per 10 acres) | destruction of pickerelweed ([4]; 1000 g per 10 acres) | mortality at 500 µg/mL [5] [%] | enzyme inhibition (acid phosphatase; 2×10^-4 M) [%] | growth of the germs of black spot [6] | growth of the germs of melanose [7] |
| --- | --- | --- | --- | --- | --- | --- | --- | --- | --- | --- | --- | --- | --- |
| CC(C(N)C(=O)O)C(F)(Cl)C(F)(F)Cl (stereo not shown) [CF2 ClCFClCH(CH3)CH(NH2)CO2 H, 2-amino-3-methyl-4,5-dichloro-4,5,5-trifluoropentanoic acid] | 37 | – | – | – | – | – | – | – | – | – | – | – | – |
| NC(CC(F)(F)C(F)(F)Br)C(=O)O (stereo not shown) [CF2 BrCF2 CH2 CH(NH2)CO2 H, 2-amino-4,4,5,5-tetrafluoro-5-bromopentanoic acid] | – | impeded the growth | impeded the growth | half destroyed | half destroyed | completely destroyed | half destroyed | half destroyed | completely destroyed | 70 | – | – | – |
| NC(CC(F)C(F)(F)Cl)C(=O)O (stereo not shown) [CF2 ClCHFCH2 CH(NH2)CO2 H, 2-amino-4,5,5-trifluoro-5-chloropentanoic acid] | – | – | – | – | – | – | – | – | – | – | 58 | – | – |
| NC(CC(F)(Cl)C(F)(F)Cl)C(=O)O (stereo not shown) [CF2 ClCFClCH2 CH(NH2)CO2 H] | – | – | – | completely destroyed | completely destroyed | completely destroyed | completely destroyed | completely destroyed | completely destroyed | – | – | impeded the growth | impeded the growth |
